In patent US7259002B2, “Polynucleotide encoding a novel acyl coenzyme A, monoacylglycerol acyltransferase-3 (MGAT3), and uses thereof” (Bristol-Myers Squibb Company, priority 2003, dated 2007):
Each block holds one molecule with its values, some of them ahead of it.

Key:
Assay type in all cases: biochemical
recombinant human MGAT3 = target: T1, recombinant human MGAT3 (Homo sapiens, UniProt Q86VF5); assay: Substrate concentration titration and substrate specificity in the MGAT enzyme assay; details: for optimal substrate concentration: 10 μg membrane fractions, 10 min at 37° C.; for substrate optimum for acyl-CoAs: acyl-CoAs at 50 μM, 200 μM sn-2-[3H]monooleoylglycerol tracer
T1 construct: predicted to contain the entire open reading frame, was chosen for further study; made in house; host or cells: Spodoptera frugiperda Sf9 insect cells (baculovirus, Bac-to-Bac); 100,000 x g membrane fractions
T1 sequence (Q86VF5 1-341): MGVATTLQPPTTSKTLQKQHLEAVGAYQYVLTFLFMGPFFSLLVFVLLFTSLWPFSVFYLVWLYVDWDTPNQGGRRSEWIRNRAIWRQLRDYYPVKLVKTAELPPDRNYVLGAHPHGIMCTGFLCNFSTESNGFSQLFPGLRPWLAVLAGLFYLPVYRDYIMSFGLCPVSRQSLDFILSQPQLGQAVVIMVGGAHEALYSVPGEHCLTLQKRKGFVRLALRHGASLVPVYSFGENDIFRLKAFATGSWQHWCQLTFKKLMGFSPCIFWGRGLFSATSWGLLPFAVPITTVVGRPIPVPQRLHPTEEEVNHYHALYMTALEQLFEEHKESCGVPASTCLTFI
Description: Sf9 cells were setup and infected with either wild type or recombinant MGAT3 viruses as in FIG. 4. After 2 days of infection, the cells were harvested, membrane fractions were prepared and aliquots of membranes were subjected to MGAT enzyme assays with various concentrations of substrates. For A, 200 μM sn-2-monooleoylglycerol and various amounts of [14C]oleoyl coenzyme A (20,000 dpm/nmol) and for B, 50 μM [14C]oleoyl coenzyme A (20,000 dpm/nmol) and various amounts of sn-2-monooleoylglycerol were incubated with 10 μg membrane fractions for 10 min at 37° C. Lipid bands corresponding to TAG and DAG were cut from TLC sheets and counted with scintillation counter. Activities were corrected values of recombinant membranes deducted by values of wild type membranes. Duplicated assays were conducted and the standard deviations were smaller than 10% of the mean.
Sf9 cells were setup and infected either with wild type, recombinant MGAT3 or with DGAT2 viruses as in FIG. 4. Aliquots of membrane fractions (10 μg) were subjected to MGAT assays to determine A) MAG stereoisomer specificity and B) preference of fatty acyl-CoAs. In A, 50 μM [14C]oleoyl coenzyme A (20,000 dpm/nmol) and 200 μM of sn-1-monooleoyglycerol (1-MAG), sn-2-monooleoyglycerol (2-MAG), or […] (3-MAG); and in B, 200 μM sn-2-[3H]monooleoylglycerol (20,000 dpm/nmol) and different acyl-CoAs at 50 μM were incubated with 10 μg membrane fractions at 37° C. for 10 min. C2, acetyl-CoA; M, malonyl-CoA; C4:0, butyryl-CoA; C12:0, lauroyl-CoA; C16:0, palmitoyl-CoA; C18:0, stearoyl-CoA; C20:0, arachidoyl-CoA; C18:1, oleoyl-CoA; C18:2, linoleoyl-CoA; C20:4, arachidonoyl-CoA.
MGAT activities were assayed for 5-10 min at 37° C. in a final volume of 200 μl according to a protocol modified from Coleman (Coleman, R. A. (1992) Methods Enzymol. 209:98-104). Each reaction contained 10 μg of membrane proteins in Assay Buffer (100 mM Tris-HCl, pH7.5, 5 mM MgCl2, 1.25 mg/ml BSA, 250 mM sucrose, 800 μM phophatidylcholine liposomes). Generally, 50 μM of acyl coenzyme A and 200 μM sn-2-monoacylglycerol (delivered in acetone, final acetone concentration <2%) were used. Reactions were started by adding protein and terminated by adding 4 ml chloroform/methanol (2/1, v/v). The extracted lipids were dried, separated by thin layer chromatography (TLC) with hexane/ethyl ether/acetic acid (85/15/0.5, v/v/v).
Identities of triacylglycerol (TAG), diacylglycerol (DAG), monoacylglycerol (MAG), free fatty acid (FFA) and other lipids were verified with lipid standards (Sigma) after staining with iodine vapor. The specific enzyme activities were traced by measuring the incorporation of [14C]oleoyl-CoA (20,000 dpm/nmol) or sn-2-[3H] monooleolyglycerol (20,000 dpm/nmol). Chromatograms were also analyzed with STORM PhosphoImager.

[1] = MGAT enzyme assay (TLC, scintillation counting) of membranes from Sf9 cells expressing the recombinant enzyme; details: 50 μM [14C]oleoyl coenzyme A
Description: Sf9 cells were setup and infected with wild type or recombinant MGAT3 viruses as in FIG. 4. Membrane extracts were prepared from the cells with various post infection times. Aliquots of membrane fractions were either subjected to A) immunoblot analysis with anti-FLAG IgG; or to B) TLC enzyme assays. For substrates, 200 μM sn-2-monooleoylglycerol and 50 μM [14C]oleoyl coenzyme A (20,000 dpm/nmol) were incubated with 10 μg membrane fractions for 6 min at 37° C. After TLC separation, the DAG and the TAG bands were cut from TLC sheets and subjected to scintillation counting. The activities were expressed as nmol/min/mg protein. Values were averages of duplicated determinations and the standard deviations were smaller than 10% of the mean.
The predicted coding sequence of human MGAT3 was fused with an NH2-terminal FLAG epitope (MGDYKDDDDG, (SEQ ID NO:21) epitope underlined) and expressed in Spodoptera frugiperda (Sf9) insect cells using Bac-to-Bac™ kit (Life Technologies) according to manufacturer's instructions. Recombinant FLAG-human-DGAT2 was expressed in the same manner as a control. Generally, cells were infected with viruses (MOI>3) for 2 days. After harvest, cells were washed with PBS, and then homogenized with a probe sonicator in Homogenization Buffer (10 mM Tris-HCl, pH 7.4, 250 mM sucrose, 1× Protease Inhibitor Cocktail [Roche]). Membrane fractions (100,000×g pellets) were stored at −80° C. until use for enzymatic assays. For immunoblot analysis, aliquots of 2 μg of membrane proteins were loaded on SDS-PAGE and probed with an anti-FLAG M2 IgG (Sigma).
MGAT activities were assayed for 5-10 min at 37° C. in a final volume of 200 μl according to a protocol modified from Coleman (Coleman, R. A. (1992) Methods Enzymol. 209:98-104). […]
Identities of triacylglycerol (TAG), diacylglycerol (DAG), monoacylglycerol (MAG), free fatty acid (FFA) and other lipids were verified with lipid standards (Sigma) after staining with iodine vapor. […] Chromatograms were also analyzed with STORM PhosphoImager.

[2] = DGAT activity: exogenous DAG assayed directly with recombinant membranes (TLC); details: Sf9 membranes, [14C]oleoyl-CoA tracer
[3] = Sf9 cell membranes, 200 μM sn-2-monooleoylglycerol, 6 min at 37° C., highest value of time course

optimal substrate concentration (recombinant human MGAT3): 50 µM
substrate optimum for acyl-CoAs (recombinant human MGAT3): best substrates
Molecule: CCCCCCCC/C=C\CCCCCCCC(=O)SCCNC(=O)CCNC(=O)[C@H](O)C(C)(C)COP(=O)(O)OP(=O)(O)OC[C@H]1O[C@@H](n2cnc3c(N)ncnc32)[C@H](O)[C@@H]1OP(=O)(O)O [oleoyl-CoA]

substrate optimum for acyl-CoAs (recombinant human MGAT3): best substrates
Molecule: CCCCCCCCCCCCCCCC(=O)SCCNC(=O)CCNC(=O)[C@H](O)C(C)(C)COP(=O)(O)OP(=O)(O)OC[C@H]1O[C@@H](n2cnc3c(N)ncnc32)[C@H](O)[C@@H]1OP(=O)(O)O [palmitoyl-CoA]

Second part, the molecule before the results:

Molecule: CCCCCCCC/C=C\CCCCCCCC(=O)OC(CO)CO [2-monooleoylglycerol, sn-2-monooleoylglycerol]
optimal substrate concentration (recombinant human MGAT3): 200 µM
MAG stereoisomer specificity (DAG synthesis) (recombinant human MGAT3; 200 μM MAG, 50 μM [14C]oleoyl coenzyme A): prefers 2-MAG as the substrate

B1: MGAT3: monoacylglycerol acyltransferase-3, 341 amino acid protein of SEQ ID NO:2 (protein, listed as Homo Sapiens)
chain: MGVATTLQPPTTSKTLQKQHLEAVGAYQYVLTFLFMGPFFSLLVFVLLFTSLWPFSVFYLVWLYVDWDTPNQGGRRSEWIRNRAIWRQLRDYYPVKLVKTAELPPDRNYVLGAHPHGIMCTGFLCNFSTESNGFSQLFPGLRPWLAVLAGLFYLPVYRDYIMSFGLCPVSRQSLDFILSQPQLGQAVVIMVGGAHEALYSVPGEHCLTLQKRKGFVRLALRHGASLVPVYSFGENDIFRLKAFATGSWQHWCQLTFKKLMGFSPCIFWGRGLFSATSWGLLPFAVPITTVVGRPIPVPQRLHPTEEEVNHYHALYMTALEQLFEEHKESCGVPASTCLTFI
specific activity for DAG [1, 3]: 22.8 nmol/min/mg
specific activity for TAG [1, 3]: 9.3 nmol/min/mg
acylation of exogenous DAG to TAG (DGAT activity) [2]: able to acylate DAG to form TAG directly

B2: DGAT2: recombinant human diacylglycerol acyltransferase 2 expressed in the same manner as a control (protein, listed as Homo Sapiens)
chain: MKTLIAAYSGVLRGERQAEADRSQRSHGGPALSREGSGRWGTGSSILSALQDLFSVTWLNRSKVEKQLQVISVLQWVLSFLVLGVACSAILMYIFCTDCWLIAVLYFTWLVFDWNTPKKGGRRSQWVRNWAVWRYFRDYFPIQLVKTHNLLTTRNYIFGYHPHGIMGLGAFCNFSTEATEVSKKFPGIRPYLATLAGNFRMPVLREYLMSGGICPVSRDTIDYLLSKNGSGNAIIIVVGGAAESLSSMPGKNAVTLRNRKGFVKLALRHGADLVPIYSFGENEVYKQVIFEEGSWGRWVQKKFQKYIGFAPCIFHGRGLFSSDTWGLVPYSKPITTVVGEPITIPKLEHPTQQDIDLYHTMYMEALVKLFDKHKTKFGLPETEVLEVN
modifications: FLAG tag
notes: recombinant human diacylglycerol acyltransferase 2 expressed in the same manner as a control
TAG synthesis from MAG stereoisomers ([1]; Sf9 membranes, 1-MAG, 2-MAG or 3-MAG at 200 μM): able to synthesize similar amount of TAG using three different MAG stereoisomers
